Assay results taken from patent US8158635B2, “Solid forms comprising 4-[9-(tetrahydro-furan-3-yl)-8-(2,4,6-trifluoro-phenylamino)-9H-purin-2-ylamino]-cyclohexan-1-ol, compositions thereof, and uses therewith” (Signal Pharmaceuticals, LLC, priority 2006, dated 2012).
In brackets after ≈: the same amount, converted by molar mass. Like-named read-outs stand apart in the source and are kept apart here.

Columns and labels:
Format in all cases: physicochemical
[1] = Approximate solubilities of solid forms in solvents; details: thermodynamic from solid, about 25° C., at least 24 hours, read-out: Approximate Solubility (mg/mL) of Form A of the Free Base of Compound I
Description: A weighed sample comprising either the free base or the HCl salt of Compound I was treated with 2 mL of a solvent (either HPLC or reagent grade). The resulting mixture was agitated for at least 24 hours at about 25° C. When all of the solids were dissolved by visual inspection, the estimated solubility was calculated. The solubility was estimated from these experiments based on the total volume of solvent used to give a complete solution. The actual solubility may be greater than those calculated due to the use of a large amount of solvent or a slow rate of dissolution. A known volume of filtrate was evaporated to dryness and the weight of the residue was measured.

[2] = Compression testing, form checked by XRPD; details: about 2000-psi pressure for about 1 min
Description: (§1) In certain embodiments, Form A of the free base of Compound I is stable during drying at temperatures up to about 40-45° C. In certain embodiments, the crystallization and/or recrystallization of Form A of the free base of Compound I provides an effective means of purification by removing or reducing the levels of chemical impurities (such as, e.g., one or more of the chemical compounds provided in FIG. 14) in the resulting material. In certain embodiments, Form A of the free base of Compound I is substantially pure. […] In certain embodiments, Form A of the free base of Compound I is stable upon compression.
X-ray powder diffraction (XRPD) measurements were performed in accordance with United States Pharmacopeia (USP) monograph <941> entitled “X-ray Diffraction” (See, e.g., The United States Pharmacopeia, The National Formulary, 2003, The Unites States Pharmacopeial Convention, Inc., Rockville, Md., 2002, which is herein incorporated by reference in its entirety). A Thermo ARL X'TRA X-ray powder diffractometer (Thermo Electron Corp., Waltham, Mass.), equipped with Nickel-filtered Cu Kα radiation at 1.54 Å, was used for XRPD measurements from about 1.5 °2θ to about 40 °2θ, with a step size of about 0.020°, a count time of about 0.50 seconds per step, and a step scan rate of about 2.40°/min. […] Diffracted radiation was measured using a Peltier-cooled Si (Li) solid-state detector. […]

[3] = Equilibration of solid form in solvent for 4 weeks at 40° C., resulting form by XRPD
Description: Equilibration slurry and evaporation experiments were carried out by adding an excess of Compound I free base or HCl salt to 2 mL of solvent. […] Upon reaching equilibrium, the saturated supernatant solution was removed and allowed to evaporate slowly in an open vial under nitrogen at 25° C. or 50° C., respectively. The slurry resulting from the equilibration was filtered and air-dried. X-ray powder diffraction (XRPD) measurements were performed in accordance with United States Pharmacopeia (USP) monograph <941> entitled “X-ray Diffraction” (See, e.g., The United States Pharmacopeia, The National Formulary, 2003, The Unites States Pharmacopeial Convention, Inc., Rockville, Md., 2002, which is herein incorporated by reference in its entirety). A Thermo ARL X'TRA X-ray powder diffractometer (Thermo Electron Corp., Waltham, Mass.), equipped with Nickel-filtered Cu Kα radiation at 1.54 Å, was used for XRPD measurements from about 1.5 °2θ to about 40 °2θ, with a step size of about 0.020°, a count time of about 0.50 seconds per step, and a step scan rate of about 2.40°/min. The instrument was equipped with a fine focus X-ray tube. The voltage and amperage were set at 45 kV and 40 mA, respectively. The divergence slits were set at 0.5 mm and 0.2 mm. Diffracted radiation was measured using a Peltier-cooled Si (Li) solid-state detector. Representative XRPD patterns were presented displaying intensity (counts per second) versus position (°2θ). A sintered alumina standard was used to check peak positions. Peak positions may vary from sample to sample by approximately ±0.1 °2θ. Variation in peak position may depend upon multiple factors, including particle size, sample preparation, data collection temperature and parameters. Variation in peak intensity may occur, e.g., as a result of preferred orientation and/or variation in crystal habit.

Stability during drying = details: temperatures up to about 40-45° C.
Description: as §1
Crude 4-[9-(tetrahydro-furan-3-yl)-8-(2,4,6-trifluoro-phenylamino)-9H-purin-2-ylamino]-cyclohexan-1-ol (“Compound I”) (5 g) was dissolved in ethanol (35 ml, 7 vol) at reflux (78-82° C.). Water (75 ml, 15 vol) was added, maintaining the temperature above 75° C. The solution was seeded (0.5-1%) and allowed to cool to ambient temperature (20-25° C.) over 4-6 h. The product was collected by filtration and washed with water (25 ml, 5 vol) then dried (18 h, 40-45° C.) to yield Form A of the free base of Compound I as an off-white crystalline solid. Form A is the imine tautomer of 4-[9-(terahydro-furan-3-yl)-8-(2,4,6-trifluoro-phenylamino)-9H-purin-2-ylamino]-cyclonhexan-1-ol having the structure: […]

Question: For `O[C@H]1CC[C@H](Nc2ncc3nc(Nc4c(F)cc(F)cc4F)n([C@H]4CCOC4)c3n2)CC1` (stereo in doubt) [Form A of the Free Base of Compound I, 4-[9-(tetrahydro-furan-3-yl)-8-(2,4,6-trifluoro-phenylamino)-9H-purin-2-ylamino]-cyclohexan-1-ol], which solubility ([1]; 2-propanol, 25 °C, organic solvent or mixture, column 1, solvent 2-Propanol) is on record?
Answer: The solubility was 15.7 mg/mL (≈ 34.9 mM).

Question: What about the solubility ([1]; 2-propanol, 25 °C, organic solvent or mixture, solvent 2-Propanol) of the same compound?
Answer: Its solubility is 6.39 mg/mL (≈ 14.2 mM).

Question: What about the solubility ([1]; absolute ethanol, 25 °C, organic solvent or mixture, column 1, solvent Absolute ethanol) of the same compound?
Answer: The solubility was 47.1 mg/mL (≈ 105 mM).

Question: And the solubility ([1]; absolute ethanol, 25 °C, organic solvent or mixture, solvent Absolute ethanol)?
Answer: The solubility was > 50 mg/mL.

Question: What about the solubility ([1]; acetone, 25 °C, organic solvent or mixture, column 1, solvent Acetone) of the same compound?
Answer: The solubility was 11.6 mg/mL (≈ 25.8 mM).

Question: What about the solubility ([1]; acetone, 25 °C, organic solvent or mixture, solvent Acetone) of the same compound?
Answer: Its solubility is 1.14 mg/mL (≈ 2.54 mM).

Question: What about the solubility ([1]; acetonitrile, 25 °C, organic solvent or mixture, column 1, solvent Acetonitrile) of the same compound?
Answer: The solubility was 2.58 mg/mL (≈ 5.75 mM).

Question: And the solubility ([1]; acetonitrile, 25 °C, organic solvent or mixture, solvent Acetonitrile)?
Answer: The solubility was 1.56 mg/mL (≈ 3.48 mM).

Question: What about the solubility ([1]; ethanol/water (1/1), 25 °C, aqueous with cosolvent or surfactant or cyclodextrin, column 1, solvent Ethanol/Water (1/1)) of the same compound?
Answer: Its solubility is 11.6 mg/mL (≈ 25.9 mM).

Question: What about the solubility ([1]; ethanol/water (1/1), 25 °C, aqueous with cosolvent or surfactant or cyclodextrin, solvent Ethanol/Water (1/1)) of the same compound?
Answer: The solubility was > 50 mg/mL.

Question: And the solubility ([1]; ethyl acetate, 25 °C, organic solvent or mixture, column 1, solvent Ethyl acetate)?
Answer: The solubility was 3.91 mg/mL (≈ 8.72 mM).

Question: What about the solubility ([1]; ethyl acetate, 25 °C, organic solvent or mixture, solvent Ethyl acetate) of the same compound?
Answer: The solubility was 0.02 mg/mL (≈ 0.0446 mM).

Question: What about the solubility ([1]; heptane, 25 °C, organic solvent or mixture, column 1, solvent Heptane) of the same compound?
Answer: Its solubility is 0.55 mg/mL (≈ 1.23 mM).

Question: And the solubility ([1]; heptane, 25 °C, organic solvent or mixture, solvent Heptane)?
Answer: The solubility was 0.51 mg/mL (≈ 1.14 mM).

Question: And the solubility ([1]; methanol, 25 °C, organic solvent or mixture, column 1, solvent Methanol)?
Answer: The solubility was > 50 mg/mL.

Question: And the solubility ([1]; methanol, 25 °C, organic solvent or mixture, solvent Methanol)?
Answer: Its solubility is > 50 mg/mL.

Question: And the solubility ([1]; methyl ethyl ketone, 25 °C, organic solvent or mixture, column 1, solvent Methyl ethyl ketone)?
Answer: The solubility was 8.74 mg/mL (≈ 19.5 mM).

Question: What about the solubility ([1]; methyl ethyl ketone, 25 °C, organic solvent or mixture, solvent Methyl ethyl ketone) of the same compound?
Answer: The solubility was 0.68 mg/mL (≈ 1.52 mM).

Question: What about the solubility ([1]; methyl t-butyl ether, 25 °C, organic solvent or mixture, column 1, solvent Methyl t-butyl ether) of the same compound?
Answer: The solubility was 1.1 mg/mL (≈ 2.45 mM).

Question: And the solubility ([1]; methylene chloride, 25 °C, organic solvent or mixture, column 1, solvent Methylene chloride)?
Answer: The solubility was 11.6 mg/mL (≈ 25.8 mM).

Question: And the solubility ([1]; methylene chloride, 25 °C, organic solvent or mixture, solvent Methylene chloride)?
Answer: Its solubility is 5 mg/mL (≈ 11.1 mM).

Question: What about the solubility ([1]; n-butanol, 25 °C, organic solvent or mixture, column 1, solvent n-Butanol) of the same compound?
Answer: Its solubility is 19.3 mg/mL (≈ 43.1 mM).

Question: What about the solubility ([1]; n-butanol, 25 °C, organic solvent or mixture, solvent n-Butanol) of the same compound?
Answer: The solubility was 7.5 mg/mL (≈ 16.7 mM).

Question: And the solubility ([1]; organic solvent or mixture, solvent Methyl t-butyl ether)?
Answer: The solubility was 0.46 mg/mL (≈ 1.03 mM).

Question: And the solubility ([1]; tetrahydrofuran, 25 °C, organic solvent or mixture, column 1, solvent Tetrahydrofuran)?
Answer: The solubility was > 50 mg/mL.

Question: What about the solubility ([1]; tetrahydrofuran, 25 °C, organic solvent or mixture, solvent Tetrahydrofuran) of the same compound?
Answer: Its solubility is 2.03 mg/mL (≈ 4.53 mM).

Question: And the solubility ([1]; toluene, 25 °C, organic solvent or mixture, column 1, solvent Toluene)?
Answer: The solubility was 0.36 mg/mL (≈ 0.803 mM).

Question: What about the solubility ([1]; toluene, 25 °C, organic solvent or mixture, solvent Toluene) of the same compound?
Answer: Its solubility is 0.04 mg/mL (≈ 0.0892 mM).

Question: And the solubility ([1]; water, 25 °C, water, column 1, solvent Water)?
Answer: The solubility was 0.41 mg/mL (≈ 0.914 mM).

Question: And the solubility ([1]; water, 25 °C, water, solvent Water)?
Answer: The solubility was > 50 mg/mL.

Question: And the “XRPD pattern after compression testing” value [2]?
Answer: The value was “substantially unchanged”.

Question: And the “Resulting Form by XRPD” value ([3]; Equilibrate Form A in 2-Propanol for 4 weeks at 40° C.)?
Answer: Its value is “Compound I Free Base Form A”.

Question: And the “Resulting Form by XRPD” value ([3]; Equilibrate Form A in Acetone for 4 weeks at 40° C.)?
Answer: The value was “Compound I Free Base Form A”.

Question: What about the “Resulting Form by XRPD” value ([3]; Equilibrate Form A in Acetonitrile for 4 weeks at 40° C.) of the same compound?
Answer: Its value is “Compound I Free Base Form A”.

Question: And the “Resulting Form by XRPD” value ([3]; Equilibrate Form A in Ethyl acetate for 4 weeks at 40° C.)?
Answer: The value was “Compound I Free Base Form A”.

Question: What about the “Resulting Form by XRPD” value ([3]; Equilibrate Form A in Heptane for 4 weeks at 40° C.) of the same compound?
Answer: The value was “Compound I Free Base Form A”.

Question: And the “Resulting Form by XRPD” value ([3]; Equilibrate Form A in MTBE for 4 weeks at 40° C.)?
Answer: The value was “Compound I Free Base Form A”.

Question: What about the “Resulting Form by XRPD” value ([3]; Equilibrate Form A in Toluene for 4 weeks at 40° C.) of the same compound?
Answer: Its value is “Compound I Free Base Form A”.

Question: What about the “Resulting Form by XRPD” value ([3]; Equilibrate Form A in Water for 4 weeks at 40° C.) of the same compound?
Answer: The value was “Compound I Free Base Form A”.

Question: What about the stability during drying (Stability during drying) of the same compound?
Answer: The stability during drying was “stable”.
